Laboratory results published in patent US9890171B2, “Aldosterone synthase inhibitors” (Boehringer Ingelheim International GmbH, priority 2014, dated 2018).

molecular target: aldosterone synthase (CYP11B2) (Macaca fascicularis, UniProt A0A2K5UPL9); assay: aldosterone synthase inhibition assay; format: biochemical, cynomolgus monkey; details: cynomolgus adrenal gland mitochondria, 2 μM corticosterone, aldosterone quantified by mass spectrometry
Procedure, shortened: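 Cynomolgus adrenal mitochondria ([…]) used as CYP11B2 source with 2 μM corticosterone in 100 mM potassium phosphate pH 7.4, 1% DMSO; reaction started with 1 mM NADPH, run 60-90 min at 37° C. Aldosterone measured by mass spectrometry; IC50 from 4-parameter logistic fit, no-NADPH blank as 0%.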

Chain of aldosterone synthase (CYP11B2) (A0A2K5UPL9 1-503): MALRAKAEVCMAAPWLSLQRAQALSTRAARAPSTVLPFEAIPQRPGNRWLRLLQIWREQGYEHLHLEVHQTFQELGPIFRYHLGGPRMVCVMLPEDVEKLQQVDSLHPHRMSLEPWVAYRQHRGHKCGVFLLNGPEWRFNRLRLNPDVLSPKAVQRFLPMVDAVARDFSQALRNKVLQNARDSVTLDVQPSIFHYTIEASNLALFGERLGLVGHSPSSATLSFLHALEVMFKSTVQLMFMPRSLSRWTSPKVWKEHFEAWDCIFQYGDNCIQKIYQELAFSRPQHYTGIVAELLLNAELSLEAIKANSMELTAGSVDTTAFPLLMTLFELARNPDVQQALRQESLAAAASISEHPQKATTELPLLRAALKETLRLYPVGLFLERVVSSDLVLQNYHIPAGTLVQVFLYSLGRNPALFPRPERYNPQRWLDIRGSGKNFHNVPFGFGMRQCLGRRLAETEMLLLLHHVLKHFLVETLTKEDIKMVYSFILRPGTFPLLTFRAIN

| Structure (SMILES) | IC50 |
| --- | --- |
| Cn1nc(C#N)c2ccc(-c3cncc4c3COCC4(C)O)cc21 (single isomer, unassigned) [Compound 177, 6-(4-Hydroxy-4-methyl-3,4-dihydro-1H-pyrano[4,3-c]pyridin-8-yl)-1-methyl-1H-indazole-3-carbonitrile] | 42.8 nM |
| Cn1nc(C#N)c2ccc(-c3cncc4c3COCC4(C)O)cc21 (single isomer, unassigned) [Compound 178, 6-(4-Hydroxy-4-methyl-3,4-dihydro-1H-pyrano[4,3-c]pyridin-8-yl)-1-methyl-1H-indazole-3-carbonitrile] | 15 nM |
| Cn1ncc2ccc(-c3cncc4c3C(C)(O)COC4)cc21 (single isomer, unassigned) [Compound 179, 4-Methyl-5-(1-methyl-1H-indazol-6-yl)-3,4-dihydro-1H-pyrano[3,4-c]pyridin-4-ol] | 38.9 nM |
| Cn1ncc2ccc(-c3cncc4c3C(C)(O)COC4)cc21 (single isomer, unassigned) [Compound 180, 4-Methyl-5-(1-methyl-1H-indazol-6-yl)-3,4-dihydro-1H-pyrano[3,4-c]pyridin-4-ol] | 281 nM |
| O=C1CCc2nc(-c3cncc4c3COCC4O)ccc21 (single isomer, unassigned) [Compound 181, 2-(4-Hydroxy-3,4-dihydro-1H-pyrano[4,3-c]pyridin-8-yl)-6,7-dihydro-[1]pyrindin-5-one] | 150 nM |
| CC1(C)COc2ccc(-c3cncc4c3COCC4O)cc21 (single isomer, unassigned) [Compound 182, 8-(3,3-Dimethyl-2,3-dihydro-benzofuran-5-yl)-3,4-dihydro-1H-pyrano[4,3-c]pyridin-4-ol] | 496 nM |
| O=C1CCc2cc(-c3cncc4c3COCC4O)ccc21 (single isomer, unassigned) [Compound 183, 5-(4-Hydroxy-3,4-dihydro-1H-pyrano[4,3-c]pyridin-8-yl)-indan-1-one] | 52 nM |
| CN(C)C1COCc2c(-c3ccc4cnn(C)c4c3)cncc21 (single isomer, unassigned) [Compound 185, Dimethyl-[8-(1-methyl-1H-indazol-6-yl)-3,4-dihydro-1H-pyrano[4,3-c]pyridin-4-yl]-amine] | 18 nM |
| N#CC1CC=C(c2cncc3c2COCC3O)CC1 (single isomer, unassigned) [Compound 186, 4-(4-Hydroxy-3,4-dihydro-1H-pyrano[4,3-c]pyridin-8-yl)-cyclohex-3-enecarbonitrile] | 67 nM |
| Cn1ncc2c1C=C(c1cncc3c1COCC3O)CC2 (single isomer, unassigned) [Compound 187, 8-(1-Methyl-4,5-dihydro-1H-indazol-6-yl)-3,4-dihydro-1H-pyrano[4,3-c]pyridin-4-ol] | 12.9 nM |
| Cn1nnc2ccc(-c3cncc4c3COCC4O)cc21 (single isomer, unassigned) [Compound 188, 8-(3-Methyl-3H-benzotriazol-5-yl)-3,4-dihydro-1H-pyrano[4,3-c]pyridin-4-ol] | 21 nM |
| Cn1ncc2c1C=C(c1cncc3c1COCC3O)CC2 (single isomer, unassigned) [Compound 189, 8-(1-Methyl-4,5-dihydro-1H-indazol-6-yl)-3,4-dihydro-1H-pyrano[4,3-c]pyridin-4-ol] | 67 nM |
| Cn1ncc2c1CC(c1cncc3c1COCC3O)CC2 (single isomer, unassigned) [Compound 190, 8-(1-Methyl-4,5,6,7-tetrahydro-1H-indazol-6-yl)-3,4-dihydro-1H-pyrano[4,3-c]pyridin-4-ol] | 340 nM |
| Cn1ncc2c1CC(c1cncc3c1COCC3O)CC2 (single isomer, unassigned) [Compound 191, 8-(1-Methyl-4,5,6,7-tetrahydro-1H-indazol-6-yl)-3,4-dihydro-1H-pyrano[4,3-c]pyridin-4-ol] | 48 nM |
| N#CC1CC=C(c2cncc3c2COCC3O)CC1 (single isomer, unassigned) [Compound 192, 4-(4-Hydroxy-3,4-dihydro-1H-pyrano[4,3-c]pyridin-8-yl)-cyclohex-3-enecarbonitrile] | 14 nM |
| CCC(=O)NC1COCc2c(-c3cc4c(cnn4C)cc3F)cncc21 (single isomer, unassigned) [Compound 193, N-[8-(5-Fluoro-1-methyl-1H-indazol-6-yl)-3,4-dihydro-1H-pyrano[4,3-c]pyridin-4-yl]-propionamide] | 38 nM |
| CCC(=O)NC1COCc2c(-c3ccc4c(c3)COCC4(F)F)cncc21 (single isomer, unassigned) [Compound 194, N-[8-(4,4-Difluoro-isochroman-7-yl)-3,4-dihydro-1H-pyrano[4,3-c]pyridin-4-yl]-propionamide] | 38 nM |
| CCS(=O)(=O)NC1COCc2c(-c3cc4c(cnn4C)cc3F)cncc21 (single isomer, unassigned) [Compound 195, Ethanesulfonic acid [8-(5-fluoro-1-methyl-1H-indazol-6-yl)-3,4-dihydro-1H-pyrano[4,3-c]pyridin-4-yl]-amide] | 140 nM |
| CCS(=O)(=O)NC1COCc2c(-c3ccc4c(c3)COCC4(F)F)cncc21 (single isomer, unassigned) [Compound 196, Ethanesulfonic acid [8-(4,4-difluoro-isochroman-7-yl)-3,4-dihydro-1H-pyrano[4,3-c]pyridin-4-yl]-amide] | 330 nM |
| Cn1nnc2ccc(-c3cncc4c3COC3(CC3)C4O)cc21 (single isomer, unassigned) [Compound 197, 8-(3-methylbenzotriazol-5-yl)spiro[1,4-dihydropyrano[4,3-c]pyridine-3,1′-cyclopropane]-4-ol] | 18 nM |
| Cn1nnc2ccc(-c3cncc4c3COC3(CC3)C4O)cc21 (single isomer, unassigned) [Compound 198, 8-(3-methylbenzotriazol-5-yl)spiro[1,4-dihydropyrano[4,3-c]pyridine-3,1′-cyclopropane]-4-ol] | 19 nM |
| OC1COCc2c(-c3ccc4c(c3)COCC4(F)F)cncc21 (single isomer, unassigned) [Compound 199, 8-(4,4-Difluoro-isochroman-7-yl)-3,4-dihydro-1H-pyrano[4,3-c]pyridin-4-ol] | 22 nM |
| OC1COCc2c(-c3ccc4c(c3)COCC4(F)F)cncc21 (single isomer, unassigned) [Compound 200, 8-(4,4-Difluoro-isochroman-7-yl)-3,4-dihydro-1H-pyrano[4,3-c]pyridin-4-ol] | 279 nM |
| Cn1ncc2ccc(-c3cncc4c3COCC4C#N)cc21 (stereo not drawn) [Compound 9, 8-(1-Methyl-1H-indazol-6-yl)-3,4-dihydro-1H-pyrano[4,3-c]pyridine-4-carbonitrile] | 5.7 nM |
| NC(=O)N1CCCc2cc(-c3cncc4c3COCC4O)cnc21 (stereo not drawn) [Compound 102, 6-(4-Hydroxy-3,4-dihydro-1H-pyrano[4,3-c]pyridin-8-yl)-3,4-dihydro-2H-[1,8]naphthyridine-1-carboxylic acid amide] | 64.9 nM |
| NC(=O)N1CCCc2cc(-c3cncc4c3C(O)COC4)cnc21 (stereo not drawn) [Compound 160, 6-(4-Hydroxy-3,4-dihydro-1H-pyrano[3,4-c]pyridin-5-yl)-3,4-dihydro-2H-[1,8]naphthyridine-1-carboxylic acid amide] | 51.1 nM |
| CCS(=O)(=O)NC1COCc2c(-c3ccc4c(c3)CCC4O)cncc21 (stereo not drawn) [Compound 184, Ethanesulfonic acid [8-(1-hydroxy-indan-5-yl)-3,4-dihydro-1H-pyrano[4,3-c]pyridin-4-yl]-amide] | 124 nM |
